According to US11331369B2, “Endoparasitic depsipeptides” (Zoetis Services LLC, priority 2017, dated 2022):

System: microfilariae of Dirofilaria immitis
Experiment: Dirofilaria immitis, Microfilaria (DiMF) In vitro Assay
Type: cell-based
Details: 72 h, read-out: DiMF Minimum Effective Dose (MED), approximately 72 hours incubation, microfilariae assessed for survival or paralysis

Row | SMILES | minimal effective concentration
1 | CC(C)C[C@H]1C(=O)O[C@H](Cc2ccc(Cn3c(=O)ccc4ccccc43)cc2)C(=O)N(C)[C@@H](CC(C)C)C(=O)O[C@H](C)C(=O)N(C)[C@@H](CC(C)C)C(=O)O[C@H](Cc2ccccc2)C(=O)N(C)[C@@H](CC(C)C)C(=O)O[C@H](C)C(=O)N1C [Example 10-12, (3S,6R,9S,12R,15S,18R,21S,24R)-6-benzyl-3,9,15,21-tetraisobutyl-4,10,12,16,22,24-hexamethyl-18-(4-((2-oxoquinolin-1 (2H)-yl)methyl)benzyl)-1,7,13,19-tetraoxa-4,10,16,22-tetraazacyclotetracosan-2,5,8,11,14,17,20,23-octaone] | 0.01 to 0.1 µM
2 | CC(C)C[C@H]1C(=O)O[C@H](Cc2ccc(Cn3ccc4cccnc43)cc2)C(=O)N(C)[C@@H](CC(C)C)C(=O)O[C@H](C)C(=O)N(C)[C@@H](CC(C)C)C(=O)O[C@H](Cc2ccccc2)C(=O)N(C)[C@@H](CC(C)C)C(=O)O[C@H](C)C(=O)N1C [Example 10-14, (3S,6R,9S,12R,15S,18R,21S,24R)-6-(4-((1H-pyrrolo[2,3-b]pyridin-1-yl)methyl)benzyl)-18-benzyl-3,9,15,21-tetraisobutyl-4,10,12,16,22,24-hexamethyl-1,7,13,19-tetraoxa-4,10,16,22-tetraazacyclotetracosan-2,5,8,11,14,17,20,23-octaone] | 0.01 to 0.1 µM
3 | CC(C)C[C@H]1C(=O)O[C@H](Cc2ccc(CN3CCOc4ccccc43)cc2)C(=O)N(C)[C@@H](CC(C)C)C(=O)O[C@H](C)C(=O)N(C)[C@@H](CC(C)C)C(=O)O[C@H](Cc2ccccc2)C(=O)N(C)[C@@H](CC(C)C)C(=O)O[C@H](C)C(=O)N1C [Example 10-16, (3S,6R,9S,12R,15S,18R,21S,24R)-6-benzyl-18-(4-((2,3-dihydro-4H-benzo[b][1,4]oxazin-4-yl)methyl)benzyl)-3,9,15,21-tetraisobutyl-4,10,12,16,22,24-hexamethyl-1,7,13,19-tetraoxa-4,10,16,22-tetraazacyclotetracosan-2,5,8,11,14,17,20,23-octaone] | 0.01 to 0.1 µM
4 | CC(C)C[C@H]1C(=O)O[C@H](Cc2ccc(Cn3cc(CO)nn3)cc2)C(=O)N(C)[C@@H](CC(C)C)C(=O)O[C@H](C)C(=O)N(C)[C@@H](CC(C)C)C(=O)O[C@H](Cc2ccccc2)C(=O)N(C)[C@@H](CC(C)C)C(=O)O[C@H](C)C(=O)N1C [Example 10-19, (3S,6R,9S,12R,15S,18R,21S,24R)-6-benzyl-18-(4-((4-(hydroxymethyl)-1H-1,2,3-triazol-1-yl)methyl)benzyl)-3,9,15,21-tetraisobutyl-4,10,12,16,22,24-hexamethyl-1,7,13,19-tetraoxa-4,10,16,22-tetraazacyclotetracosan-2,5,8,11,14,17,20,23-octaone] | 0.01 to 0.1 µM
5 | Cc1ccc(OCc2cn(Cc3ccc(C[C@H]4OC(=O)[C@H](CC(C)C)N(C)C(=O)[C@@H](C)OC(=O)[C@H](CC(C)C)N(C)C(=O)[C@@H](Cc5ccccc5)OC(=O)[C@H](CC(C)C)N(C)C(=O)[C@@H](C)OC(=O)[C@H](CC(C)C)N(C)C4=O)cc3)nn2)cc1 [Example 10-21, (3S,6R,9S,12R,15S,18R,21S,24R)-6-benzyl-3,9,15,21-tetraisobutyl-4,10,12,16,22,24-hexamethyl-18-(4-((4-((p-tolyloxy)methyl)-1H-1,2,3-triazol-1-yl)methyl)benzyl)-1,7,13,19-tetraoxa-4,10,16,22-tetraazacyclotetracosan-2,5,8,11,14,17,20,23-octaone] | 0.01 to 0.1 µM
6 | COc1ccc(OCc2cn(Cc3ccc(C[C@H]4OC(=O)[C@H](CC(C)C)N(C)C(=O)[C@@H](C)OC(=O)[C@H](CC(C)C)N(C)C(=O)[C@@H](Cc5ccccc5)OC(=O)[C@H](CC(C)C)N(C)C(=O)[C@@H](C)OC(=O)[C@H](CC(C)C)N(C)C4=O)cc3)nn2)cc1 [Example 10-22, (3S,6R,9S,12R,15S,18R,21S,24R)-6-benzyl-3,9,15,21-tetraisobutyl-18-(4-((4-((4-methoxyphenoxy)methyl)-1H-1,2,3-triazol-1-yl)methyl)benzyl)-4,10,12,16,22,24-hexamethyl-1,7,13,19-tetraoxa-4,10,16,22-tetraazacyclotetracosan-2,5,8,11,14,17,20,23-octaone] | 0.01 to 0.1 µM
7 | CC(C)C[C@H]1C(=O)O[C@H](Cc2ccc(Cn3cc(COc4cccc(C#N)c4)nn3)cc2)C(=O)N(C)[C@@H](CC(C)C)C(=O)O[C@H](C)C(=O)N(C)[C@@H](CC(C)C)C(=O)O[C@H](Cc2ccccc2)C(=O)N(C)[C@@H](CC(C)C)C(=O)O[C@H](C)C(=O)N1C [Example 10-23, 3-((1-(4-(((2R,5S,8R,11S,14R,17S,20R,23S)-14-benzyl-5,11,17,23-tetraisobutyl-4,8,10,16,20,22-hexamethyl-3,6,9,12,15,18,21,24-octaoxo-1,7,13,19-tetraoxa-4,10,16,22-tetraazacyclotetracosan-2-yl)methyl)benzyl)-1H-1,2,3-triazol-4-yl)methoxy)benzonitrile] | 0.01 to 0.1 µM
8 | CC(C)C[C@H]1C(=O)O[C@H](Cc2ccc(CN3CC(CO)OC3=O)cc2)C(=O)N(C)[C@@H](CC(C)C)C(=O)O[C@H](C)C(=O)N(C)[C@@H](CC(C)C)C(=O)O[C@H](Cc2ccccc2)C(=O)N(C)[C@@H](CC(C)C)C(=O)O[C@H](C)C(=O)N1C (stereo partly drawn) [Example 10-24, (3S,6R,9S,12R,15S,18R,21S,24R)-6-benzyl-18-(4-((5-(hydroxymethyl)-2-oxooxazolidin-3-yl)methyl)benzyl)-3,9,15,21-tetraisobutyl-4,10,12,16,22,24-hexamethyl-1,7,13,19-tetraoxa-4,10,16,22-tetraazacyclotetracosan-2,5,8,11,14,17,20,23-octaone] | 0.01 to 0.1 µM
9 | CC(C)C[C@H]1C(=O)O[C@H](Cc2ccc(CN3CCCOC3=O)cc2)C(=O)N(C)[C@@H](CC(C)C)C(=O)O[C@H](C)C(=O)N(C)[C@@H](CC(C)C)C(=O)O[C@H](Cc2ccccc2)C(=O)N(C)[C@@H](CC(C)C)C(=O)O[C@H](C)C(=O)N1C [Example 10-25, (3S,6R,9S,12R,15S,18R,21S,24R)-6-benzyl-3,9,15,21-tetraisobutyl-4,10,12,16,22,24-hexamethyl-18-(4-((2-oxo-1,3-oxazinan-3-yl)methyl)benzyl)-1,7,13,19-tetraoxa-4,10,16,22-tetraazacyclotetracosan-2,5,8,11,14,17,20,23-octaone] | 0.01 to 0.1 µM
10 | CC(C)C[C@H]1C(=O)O[C@H](Cc2ccc(Cn3ncc4ccccc43)cc2)C(=O)N(C)[C@@H](CC(C)C)C(=O)O[C@H](C)C(=O)N(C)[C@@H](CC(C)C)C(=O)O[C@H](Cc2ccccc2)C(=O)N(C)[C@@H](CC(C)C)C(=O)O[C@H](C)C(=O)N1C [Example 10-26, (3S,6R,9S,12R,15S,18R,21S,24R)-6-(4-((1H-indazol-1-yl)methyl)benzyl)-18-benzyl-3,9,15,21-tetraisobutyl-4,10,12,16,22,24-hexamethyl-1,7,13,19-tetraoxa-4,10,16,22-tetraazacyclotetracosan-2,5,8,11,14,17,20,23-octaone] | 0.01 to 0.1 µM
11 | CC(C)C[C@H]1C(=O)O[C@H](Cc2ccc(Cn3cc4c(n3)CNC4)cc2)C(=O)N(C)[C@@H](CC(C)C)C(=O)O[C@H](C)C(=O)N(C)[C@@H](CC(C)C)C(=O)O[C@H](Cc2ccccc2)C(=O)N(C)[C@@H](CC(C)C)C(=O)O[C@H](C)C(=O)N1C [Example 10-27, (3S,6R,9S,12R,15S,18R,21S,24R)-6-benzyl-18-(4-((5,6-dihydropyrrolo[3,4-c]pyrazol-2(4H)-yl)methyl)benzyl)-3,9,15,21-tetraisobutyl-4,10,12,16,22,24-hexamethyl-1,7,13,19-tetraoxa-4,10,16,22-tetraazacyclotetracosan-2,5,8,11,14,17,20,23-octaone] | 0.01 to 0.1 µM
12 | CC(C)C[C@H]1C(=O)O[C@H](Cc2ccc(Cn3cc4c(n3)CCOC4)cc2)C(=O)N(C)[C@@H](CC(C)C)C(=O)O[C@H](C)C(=O)N(C)[C@@H](CC(C)C)C(=O)O[C@H](Cc2ccccc2)C(=O)N(C)[C@@H](CC(C)C)C(=O)O[C@H](C)C(=O)N1C [Example 10-28, (3S,6R,9S,12R,15S,18R,21S,24R)-6-benzyl-18-(4-((6,7-dihydropyrano[4,3-c]pyrazol-2(4H)-yl)methyl)benzyl)-3,9,15,21-tetraisobutyl-4,10,12,16,22,24-hexamethyl-1,7,13,19-tetraoxa-4,10,16,22-tetraazacyclotetracosan-2,5,8,11,14,17,20,23-octaone] | 0.01 to 0.1 µM
13 | CC(C)C[C@H]1C(=O)O[C@H](Cc2ccc(Cn3cc4c(n3)CN(C)C4)cc2)C(=O)N(C)[C@@H](CC(C)C)C(=O)O[C@H](C)C(=O)N(C)[C@@H](CC(C)C)C(=O)O[C@H](Cc2ccccc2)C(=O)N(C)[C@@H](CC(C)C)C(=O)O[C@H](C)C(=O)N1C [Example 10-32, (3S,6R,9S,12R,15S,18R,21S,24R)-6-benzyl-3,9,15,21-tetraisobutyl-4,10,12,16,22,24-hexamethyl-18-(4-((5-methyl-5,6-dihydropyrrolo[3,4-c]pyrazol-2(4H)-yl)methyl)benzyl)-1,7,13,19-tetraoxa-4,10,16,22-tetraazacyclotetracosan-2,5,8,11,14,17,20,23-octaone] | 0.01 to 0.1 µM
14 | CC(C)C[C@H]1C(=O)O[C@H](Cc2ccc(CN3CCS(=O)(=O)c4ccccc43)cc2)C(=O)N(C)[C@@H](CC(C)C)C(=O)O[C@H](C)C(=O)N(C)[C@@H](CC(C)C)C(=O)O[C@H](Cc2ccc(CN3CCS(=O)(=O)c4ccccc43)cc2)C(=O)N(C)[C@@H](CC(C)C)C(=O)O[C@H](C)C(=O)N1C [Example 10-33, (3S,6R,9S,12R,15S,18R,21S,24R)-6,18-bis(4-((1,1-dioxido-2,3-dihydro-4H-benzo[b][1,4]thiazin-4-yl)methyl)benzyl)-3,9,15,21-tetraisobutyl-4,10,12,16,22,24-hexamethyl-1,7,13,19-tetraoxa-4, 10,16,22-tetraazacyclotetracosan-2,5,8,11,14,17,20,23-octaone] | 0.01 to 0.1 µM
